From patent US20120190059A1, “METHODS FOR OBTAINING HEPATOCYTES, HEPATIC ENDODERM CELLS AND HEPATIC PROGENITOR CELLS BY INDUCED DIFFERENTIATION” (BEIJING HUAYU[…]., LTD., priority 2009, published 2012)

System: cytochrome p450
Assay: PROD detection of cytochrome p450 activity in differentiated hepatocyte-like cells
Details: phenobarbital induction versus no induction, hepatocyte-like cells differentiated from hepatic progenitor cells

## CCC1(c2ccccc2)C(=O)NC(=O)NC1=O [Phenobarbital]
  PROD activity of the differentiated cells: could improve the PROD activity
Listed as phenobarbital
  PROD activity of the differentiated cells: PROD activity was enhanced
